Type in all cases: cell-based
For assay [1], the target named is T1, organic cation transporter 1 (OCT1/SLC22A1) (Homo sapiens, UniProt O15245).
T1 sequence (O15245 1-554): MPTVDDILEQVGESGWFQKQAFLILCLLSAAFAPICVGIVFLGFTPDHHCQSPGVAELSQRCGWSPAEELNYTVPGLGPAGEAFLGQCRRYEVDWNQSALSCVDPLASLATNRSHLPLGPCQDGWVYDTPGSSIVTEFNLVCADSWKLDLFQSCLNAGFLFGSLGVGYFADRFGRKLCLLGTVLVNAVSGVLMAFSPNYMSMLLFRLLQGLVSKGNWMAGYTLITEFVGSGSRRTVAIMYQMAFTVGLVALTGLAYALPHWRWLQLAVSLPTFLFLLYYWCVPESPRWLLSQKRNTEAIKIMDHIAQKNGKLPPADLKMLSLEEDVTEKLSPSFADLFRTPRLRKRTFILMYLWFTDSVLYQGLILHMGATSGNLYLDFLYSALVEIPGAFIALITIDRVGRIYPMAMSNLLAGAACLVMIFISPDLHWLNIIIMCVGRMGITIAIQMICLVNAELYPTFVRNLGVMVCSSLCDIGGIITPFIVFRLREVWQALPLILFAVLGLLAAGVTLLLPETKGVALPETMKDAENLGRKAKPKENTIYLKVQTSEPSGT
Briefly: inhibition of OCT1-specific [3H]atenolol uptake in MDCKII cells stably expressing OCT1.

For assay [2], the target named is T1, organic cation transporter 1 (OCT1/SLC22A1). Briefly: inhibition of OCT1-specific [3H]atenolol uptake at […] in MDCKII cells.
The target is the same in assay [3]. Kind of assay: inhibition of OCT1-specific [3H]atenolol uptake in MDCKII cells stably expressing OCT1; MPP+ uptake also inhibited.

The structures appear in SMILES notation.

Data on four compounds can be found in paper PMC5668658 (Biochemistry and Biophysics Reports, 2015).

The Ki is a measure of affinity in units of concentration, obtained from inhibition or displacement. In assay [1], `O=C(CCc1ccc(O)cc1)c1c(O)cc(O)cc1O` [phloretin] returned a Ki of 38 µM.

As for `O=C(CCc1ccc(O)cc1)c1c(O)cc(O)cc1O[C@@H]1O[C@H](CO)[C@@H](O)[C@H](O)[C@H]1O` [Phlorizin], in assay [2], the “inhibition of OCT1-specific [3H]atenolol uptake at 100 μM in MDCKII cells” value is on record as “also exhibited inhibitory activities comparable to those of their aglycones”.

In assay [3], `O=c1c(O)c(-c2ccc(O)c(O)c2)oc2cc(O)cc(O)c12` [quercetin] displayed an inhibition constant (Ki) of 48 µM.

For the compound `O=c1cc(-c2ccccc2)oc2cc(O)c(O)c(O)c12` [Baicalein], the “inhibition of OCT1-specific [3H]atenolol uptake at 100 μM in MDCKII cells” value in assay [2] is reported as “exhibited the most potent inhibitory activity”.
